Data set [1] relates to normal bronchial epithelial cells (BEAS-2B). The data set can be described thus: cell viability (MTT assay), BEAS-2B. The format is cell-based, human. The following applies: Homo sapiens, BEAS-2B, 48 h exposure, nonlinear regression, predictive estimates. How it is done: Human bronchial epithelial (BEAS-2B; CRL-3588) and human lung carcinoma (A549; CCL-185) cell lines were obtained from ATCC®. BEAS and A549 cells were maintained in complete RPMI 1640 (Merck, Darmstadt, Germany) at 37 °C and 5% CO2. The medium was supplemented with 10% heat-inactivated fetal bovine serum (FBS), 1% penicillin/streptomycin and 1% sodium pyruvate.
(§1) Cells were seeded at different densities according to the different experimental techniques performed (MTT assay and cell cycle analysis) and left to adhere for 24 h. Next, the medium was removed, and cells were treated with tested compounds, dissolved in dimethyl sulfoxide (DMSO) to achieve concentrations ranging from 0 µM (untreated control = CTRL) to 150 µM. The final DMSO concentration was kept below 0.3%. Cell viability was evaluated at up to 72 h post-treatment. Images were acquired 48 h after treatments by means of a light phase-contrast microscope equipped with a camera (Leica). Images were acquired and analyzed by the Leica Application Suite LAS EZ version 3.4 (Leica, Wetzlar, Germany).
(§2) BEAS and A549 cells were seeded in 96-well culture-treated plates (Falcon®, Corning Incorporated, Brooklyn, NY, USA) at a density of 0.5 × 10^4 cells/well. Untreated cells were set as the experimental control, representing 100% of cell viability. Exposure times varied from 24 up to 72 h. At the established time points (24, 48 and 72 h), the exposure medium was replaced with fresh medium containing 0.5 mg/mL 3-(4,5-dimethylthiazol-2-yl)-2,5-diphenyltetrazolium bromide (MTT) (Merck, Darmstadt, Germany) and processed as previously reported. The optical density in each well was measured at a wavelength of 540 nm using a spectrophotometer (Thermo Fisher Scientific, Waltham, MA, USA). Each experiment was performed in triplicate per experimental conditions (n = 3).

Data set [2] deals with bronchial adenocarcinoma cells (A549). The data set can be described thus: cell viability (MTT assay), A549. The format is cell-based, human. The following applies: for IC50: Homo sapiens, A549, 48 h exposure, nonlinear regression, predictive estimates; for SI (selectivity index, IC50 BEAS/IC50 A549 ratio): 48 h. How it is done: The medium was supplemented with 10% heat-inactivated fetal bovine serum (FBS), 1% penicillin/streptomycin and 1% sodium pyruvate.
Cells were seeded at different densities according to the different experimental techniques performed (MTT assay and cell cycle analysis) and left to adhere for 24 h. […] The final DMSO concentration was kept below 0.3%. Cell viability was evaluated at up to 72 h post-treatment. Images were acquired 48 h after treatments by means of a light phase-contrast microscope equipped with a camera (Leica). Images were acquired and analyzed by the Leica Application Suite LAS EZ version 3.4 (Leica, Wetzlar, Germany).
as §2

The subject of data set [3] is A549 cells. The data set can be described thus: cytotoxicity assay (LDH test). The data set is classed as cell-based, human. The following applies: 24 h; for LDH released, fold increase respective to untreated cells: A549, 150 µM; for cytotoxicity occurrence (LDH release): A549, 0–150 µM. How it is done:
as §1
To assess cytotoxicity in A549 cells after their treatment with the tested compounds, the amount of lactate dehydrogenase released into the culture medium was quantified using the CytoTox 96 non-radioactive cytotoxicity assay (Promega, Madison, WI, USA) according to the manufacturer’s instructions. Cell supernatants were collected from the same cultures processed for the MTT assay after 24 h of treatment and the optical density values obtained were normalized to those measured from the MTT assay.
(LDH leaks from cells whose membrane has failed.)

In data set [4] the target is h-CA I (Homo sapiens, UniProt P00915). Description: stopped-flow CO2 hydrase assay, h-CA I.
The target in data set [5] is h-CA II (Homo sapiens, UniProt P00918). Description: stopped-flow CO2 hydrase assay, h-CA II.
The target of data set [6] is h-CA IX (Homo sapiens, UniProt Q16790). Description: stopped-flow CO2 hydrase assay, h-CA IX. The following applies: for selectivity on h-CA IX over h-CA XII (in words): comparison of Ki values.
The target of data set [7] is h-CA XII (Homo sapiens, UniProt O43570). Description: stopped-flow CO2 hydrase assay, h-CA XII.
Data set [8] has as its system A549 cells. Description: cell cycle analysis (PI flow cytometry). The format is cell-based, human. The following applies: A549, 0–150 µM, 48 h; S phase cells increased vs untreated control. How it is done:
as §1
[…] At each time point, cells were detached using StemPro™ Accutase™, pelleted by centrifugation, and fixed overnight at 4 °C in 70% v/v cold ethanol. After fixation, cells were processed as described elsewhere. The PI fluorescence was detected by a flow cytometer equipped with a 488 nm laser (CytoFlex flow cytometer, Beckman Coulter, CA, USA) in the FL-3 channel. A minimum of 10,000 events/sample were acquired and analyzed with the CytExpert Software, version 2.3 (Beckman Coulter, CA, USA), and the percentages of cells in the G1, S, or G2 phase of the cell cycle were calculated using the ModFit LT™ Software, version 5.0 (Verity Software House, Topsham, ME, USA).
On the technique in general: In flow cytometry, cells or beads pass a laser one at a time.

Structures are written as SMILES.

The text below walks through data of PMC11944513, “Investigation on Human Carbonic Anhydrase IX and XII Inhibitory Activity and A549 Antiproliferative Activity of a New Class of Coumarinamides” (Pharmaceuticals, 2025).

h-CA I, sequence (P00915 whole entry): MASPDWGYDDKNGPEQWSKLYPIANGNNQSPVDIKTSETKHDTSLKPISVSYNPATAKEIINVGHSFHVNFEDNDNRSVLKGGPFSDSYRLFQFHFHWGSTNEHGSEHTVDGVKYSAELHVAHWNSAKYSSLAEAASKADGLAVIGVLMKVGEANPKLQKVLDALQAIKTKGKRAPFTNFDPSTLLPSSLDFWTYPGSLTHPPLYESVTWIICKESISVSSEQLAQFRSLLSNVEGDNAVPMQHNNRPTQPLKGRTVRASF
h-CA XII, sequence (O43570 25-354): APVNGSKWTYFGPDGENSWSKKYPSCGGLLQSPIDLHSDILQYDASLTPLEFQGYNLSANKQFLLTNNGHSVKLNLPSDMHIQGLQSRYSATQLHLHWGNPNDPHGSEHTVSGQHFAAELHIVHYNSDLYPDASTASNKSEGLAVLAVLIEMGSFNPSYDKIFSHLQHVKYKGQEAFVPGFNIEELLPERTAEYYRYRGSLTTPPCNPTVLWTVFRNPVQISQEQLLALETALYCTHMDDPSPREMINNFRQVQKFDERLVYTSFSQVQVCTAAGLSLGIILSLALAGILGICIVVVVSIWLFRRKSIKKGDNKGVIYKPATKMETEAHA

Take `Cc1ccc(CNC(=O)c2cc3ccc(O)cc3oc2=O)cc1` [Compound 7, 7-Hydroxy-N-(4-Methylbenzyl)-2-Oxo-2H-Chromene-3-Carboxamide]: the results for the IC50 in data set [1] and in data set [2] were 157.8 ± 1.07 µM and 85.8 ± 1.13 µM, respectively. For the same compound, in data set [3], the “LDH released, fold increase respective to untreated cells” value is recorded as around 2 fold. Further, the Ki was above 100 µM in data set [4], above 100 µM in data set [5], 33.7 µM in data set [6] and 8.8 µM in data set [7].
For `COc1ccc(CNC(=O)c2cc3ccc(O)cc3oc2=O)cc1` [Compound 9, 7-Hydroxy-N-(4-Methoxylbenzyl)-2-Oxo-2H-Chromene-3-Carboxamide], the figures for the IC50 in data set [1] and in data set [2] were 116 ± 1.22 µM and 68.2 ± 1.11 µM, respectively. For the same compound, in data set [3], the “LDH released, fold increase respective to untreated cells” value is on record as around 3 fold. The Ki in data set [4] is above 100 µM; in data set [5], above 100 µM; in data set [6] it was 53.8 µM; in data set [7], 9.1 µM.
Consider `O=C(NCc1ccc(Cl)cc1Cl)c1cc2ccc(O)cc2oc1=O` [Compound 22, N-(2,4-Dichlorobenzyl)-7-Hydroxy-2-Oxo-2H-Chromene-3-Carboxamide], for which the IC50 in data set [1] is 95.8 ± 1.07 µM; in data set [2], 83.3 ± 1.08 µM. Also, the “SI (selectivity index, IC50 BEAS/IC50 A549 ratio)” value in data set [2] is 1.150. For the same compound, the Ki in data set [4] is above 100 µM; in data set [5], above 100 µM; in data set [6], 22 µM; in data set [7], 84.1 µM.
With `O=C(NCc1ccc(Cl)c(Cl)c1)c1cc2ccc(O)cc2oc1=O` [Compound 23, N-(3,4-Dichlorobenzyl)-7-Hydroxy-2-Oxo-2H-Chromene-3-Carboxamide], the results for the half-inhibitory concentration (IC50) in data set [1] and in data set [2] were 73.4 ± 1.1 µM and 39.5 ± 1.06 µM, respectively. Also, the “cytotoxicity occurrence (LDH release)” value in data set [3] is on record as “None of the compounds administered displayed cytotoxicity”. The “arrest of cell cycle progression” value in data set [8] was “able to arrest cells at the G1/S checkpoint”. Further, the Ki in data set [4] is above 100 µM; in data set [5], above 100 µM; in data set [6] it was 46.2 µM; in data set [7], 21 µM.
On to `O=C(NCCc1ccccc1Cl)c1cc2ccc(O)cc2oc1=O` [Compound 29, N-(2-Chlorophenethyl)-7-Hydroxy-2-Oxo-2H-Chromene-3-Carboxamide], for which the values for the IC50 in data set [1] and in data set [2] were 77.5 ± 1.08 µM and 55.9 ± 1.12 µM, respectively. Besides, in data set [2], the “SI (selectivity index, IC50 BEAS/IC50 A549 ratio)” value is on record as 1.386. In addition, the Ki in data set [4] was above 100 µM; in data set [5], above 100 µM; in data set [6], 5.5 µM; in data set [7] it was 43.1 µM. Also, in data set [6], the “selectivity on h-CA IX over h-CA XII (in words)” value is listed as “good selectivity against h-CA IX over h-CA XII”.
Regarding `O=C(NCCc1cccc(Cl)c1)c1cc2ccc(O)cc2oc1=O` [Compound 30, N-(3-Chlorophenethyl)-7-Hydroxy-2-Oxo-2H-Chromene-3-Carboxamide], the IC50 in data set [1] is 87.4 ± 1.06 µM; in data set [2], 59.7 ± 1.07 µM. Also, the “SI (selectivity index, IC50 BEAS/IC50 A549 ratio)” value in data set [2] stood at 1.465. Besides, the Ki in data set [4] is above 100 µM; in data set [5], above 100 µM; in data set [6] it was 7.5 µM; in data set [7], 55.8 µM. In addition, the “selectivity on h-CA IX over h-CA XII (in words)” value in data set [6] is reported as “good selectivity against h-CA IX over h-CA XII”.
Take `O=C(c1cc2ccc(O)cc2oc1=O)N1CCN(c2ccccc2)CC1` [Compound 32, 7-Hydroxy-3-(4-Phenylpiperazine-1-Carbonyl)-2H-Chromen-2-One]: the figures for the IC50 in data set [1] and in data set [2] were 399.7 ± 1.68 µM and 156.9 ± 1.12 µM, respectively. Also, the “SI (selectivity index, IC50 BEAS/IC50 A549 ratio)” value in data set [2] came out at 2.547. Besides, the Ki in data set [4] was above 100 µM; in data set [5] it was above 100 µM; in data set [6], 49.3 µM; in data set [7], 9.1 µM. The “selectivity on h-CA XII over h-CA IX” value in data set [7] (ratio of Ki values) was around 5 fold.
In the case of `Cc1ccc(N2CCN(C(=O)c3cc4ccc(O)cc4oc3=O)CC2)cc1C` [Compound 38, 3-(4-(3,4-Dimethylphenyl)piperazine-1-Carbonyl)-7-Hydroxy-2H-Chromen-2-One], the IC50 is 187.4 ± 1.27 µM in data set [1] and 50 ± 1.28 µM in data set [2]. For the same compound, the “SI (selectivity index, IC50 BEAS/IC50 A549 ratio)” value in data set [2] turned out to be 3.747. The “cytotoxicity occurrence (LDH release)” value in data set [3] was “None of the compounds administered displayed cytotoxicity”. The “arrest of cell cycle progression” value in data set [8] was “able to arrest cells at the G1/S checkpoint”. Further, the Ki in data set [4] is above 100 µM; in data set [5], above 100 µM; in data set [6], 70.3 µM; in data set [7] it was 9.2 µM.
With `COc1ccc(N2CCN(C(=O)c3cc4ccc(O)cc4oc3=O)CC2)cc1` [Compound 44, 7-Hydroxy-3-(4-(4-Methoxyphenyl)piperazine-1-Carbonyl)-2H-Chromen-2-One], the IC50 in data set [1] was 203.5 ± 1.19 µM; in data set [2], 108 ± 1.28 µM. The “SI (selectivity index, IC50 BEAS/IC50 A549 ratio)” value in data set [2] stood at 1.888. Besides, the Ki in data set [4] was above 100 µM; in data set [5] it was above 100 µM; in data set [6], 32.8 µM; in data set [7], 22.5 µM.
`O=C(c1cc2ccc(O)cc2oc1=O)N1CCN(c2ccc(C(F)(F)F)cc2)CC1` [Compound 45, 3-(4-(4-Trifluoromethylphenyl)piperazine-1-Carbonyl)-7-Hydroxy-2H-Chromen-2-One]: the IC50 in data set [1] is 53.9 ± 1.07 µM; in data set [2], 25.7 ± 1.14 µM. Also, the “SI (selectivity index, IC50 BEAS/IC50 A549 ratio)” value in data set [2] is 2.096. Moreover, the Ki in data set [4] was above 100 µM; in data set [5] it was above 100 µM; in data set [6], 22.6 µM; in data set [7] it was 8.4 µM.

For orientation: IC50 means the point on the concentration scale where inhibition reaches its midpoint. In general, Ki refers to the equilibrium dissociation constant of an inhibitor or competing ligand from its target. Read a low Ki as higher affinity.
